Assay results reported in PubChem BioAssay (NCI).
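Cultured in 96-well plates, cells were exposed to test compound for 48 hours across five concentrations. TGI denotes the concentration required for complete inhibition of growth.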

What was measured:
Assay in all cases: inhibition of tumour cell growth, NCI panel, 48 h
HCT-15 colon = tested on: HCT-15 colon
OVCAR-4 ovarian = tested on: OVCAR-4 ovarian
PC-3 prostate = tested on: PC-3 prostate
RXF 393 renal = tested on: RXF 393 renal
SNB-75 CNS = tested on: SNB-75 CNS
T-47D breast = tested on: T-47D breast
UO-31 renal = tested on: UO-31 renal

SMILES	TGI (HCT-15 colon)	TGI (OVCAR-4 ovarian)	TGI (PC-3 prostate)	TGI (RXF 393 renal)	TGI (SNB-75 CNS)	TGI (T-47D breast)	TGI (UO-31 renal)
CN(C)c1ccc(C(=C2C=CC(=[N+](C)C)C=C2)c2c(O)c(S(=O)(=O)[O-])cc3cc(S(=O)(=O)O)ccc23)cc1	> 100 µM	> 100 µM	> 100 µM	> 100 µM	> 100 µM	> 100 µM	> 100 µM
Brc1ccc2c(c1)[C@H]1CCc3c([nH]c4ccccc34)[C@H]1N2	–	26.3 µM	22.4 µM	33.4 µM	35.7 µM	16.8 µM	26.9 µM
CCCCc1ccc(Nc2nc(N)c3[nH]cnc3n2)cc1	66.1 µM	60.4 µM	39.7 µM	–	–	> 100 µM	27.1 µM
CC(C)=CCC[C@@H](C)c1c(O)c(O)c(C)c2nc3ccccc3nc12	15 µM	19.9 µM	11.3 µM	4.45 µM	6.8 µM	10.6 µM	5.61 µM
O=c1[nH]/c(=C/c2cccs2)c(=O)[nH]/c1=C/c1ccc(OCc2ccccc2)cn1	28.8 µM	45.5 µM	> 44.4 µM	3.88 µM	2.66 µM	–	> 100 µM
O=C1NC(N2CCOCC2)=N/C1=C\c1ccccc1	> 100 µM	> 100 µM	> 100 µM	–	> 100 µM	> 100 µM	> 100 µM
CC1CN=C(c2ccc3c(c2)Cc2cc(C4=NCC(C)N4)ccc2-3)N1 (configuration not stated)	> 100 µM	48.6 µM	> 100 µM	> 100 µM	> 100 µM	> 100 µM	> 100 µM
CO/C=C(/C(=O)OC)c1ccccc1[C@H]1C[C@@H]1c1ccc(OC)cc1	66.1 µM	45 µM	> 100 µM	> 100 µM	–	56.7 µM	> 100 µM
O=C1CCCc2ccc3c(c21)CC1(Cc2cc4c(cc2C1)CCCC4)C3	61.3 µM	50.9 µM	–	32 µM	65.1 µM	23.2 µM	32.4 µM
Cc1cc(S(=O)(=O)Nc2nc(N)n(-c3ccccc3)n2)c(S)cc1Cl	> 100 µM	> 100 µM	> 100 µM	> 100 µM	> 100 µM	> 100 µM	> 100 µM
CSc1nc(NC2CC2)c2c(n1)Sc1nc3ccccc3n1N=C2	> 100 µM	55.8 µM	> 100 µM	–	–	–	44.4 µM
COC(=O)[C@@]12CC3CN(Cc4c1[nH]c1ccccc41)C2CC3=O	> 100 µM	> 100 µM	> 100 µM	> 100 µM	> 100 µM	> 100 µM	–
O=C(O)CC(Cc1ccccc1)C(=O)O (configuration not stated)	> 100 µM	> 100 µM	> 100 µM	> 100 µM	–	> 100 µM	> 100 µM
COc1c2c(cc3oc(=O)ccc13)OC(C)(C)C=C2	65.5 µM	–	–	–	56.6 µM	23.6 µM	73.6 µM
Cc1cc(C)c2c(=O)n(CC(O)CN3CCN(c4ncccn4)CC3)sc2n1 (configuration not stated)	35.4 µM	37.3 µM	32.8 µM	33.6 µM	28.4 µM	52.9 µM	30 µM
O=c1[nH]nc(Nc2ccccc2)c2nnn(Cc3ccccc3)c12	> 100 µM	> 100 µM	> 100 µM	> 100 µM	85.3 µM	> 100 µM	> 100 µM
Cc1cc2nc(N)n[n+]([O-])c2cc1C	> 100 µM	–	> 100 µM	> 100 µM	–	> 100 µM	> 100 µM
C=CCCCN1C(=O)C2C3c4ccccc4C(C=O)(c4ccccc43)C2C1=O (configuration not stated)	21.5 µM	29.1 µM	26.3 µM	–	–	> 100 µM	26 µM
O=C(NC12CC3CC(CC(C3)C1)C2)n1cnc2cncnc21	> 100 µM	–	98.7 µM	> 100 µM	> 100 µM	> 100 µM	> 100 µM
COc1cc(C(C)(C)C)c(OC(=O)/C=C/C(=O)O/C=C/[N+](=O)[O-])c(C(C)(C)C)c1	48.4 µM	–	–	81.7 µM	> 100 µM	> 100 µM	76.9 µM
NCCCCN(CCCN)C(=O)OCc1ccccc1	> 100 µM	> 100 µM	> 100 µM	> 100 µM	> 100 µM	> 100 µM	> 100 µM
CCOC(=O)C(C(N)=O)c1nc2cc([N+](=O)[O-])ccc2nc1/C=C(\O)c1ccc(C)cc1 (configuration not stated)	> 82.2 µM	> 100 µM	40.4 µM	37.1 µM	42 µM	> 100 µM	49 µM
CS(=O)(=O)c1ccc(C2=C(c3ccccc3)C(=O)OC2)cc1	> 100 µM	> 100 µM	> 100 µM	> 100 µM	> 100 µM	> 100 µM	> 100 µM
CCCc1c(OC)c(O)c2c(=O)cc(OC)c3c4c(OC)cc(=O)c5c(O)c(OC)c(CCC)c(c1c23)c54	22.9 µM	32.7 µM	11.9 µM	–	23.6 µM	–	11 µM
Cc1ccc(N=c2oc3c(ccc4ccccc43)nc2Nc2ccc(C)cc2)cc1	> 100 µM	> 100 µM	> 100 µM	> 100 µM	> 100 µM	> 100 µM	> 100 µM
COc1c(Cl)ccc(Cl)c1-c1nnc(-c2c(Cl)c(Cl)c(Cl)c(Cl)c2-c2nc3ccc(C(=O)c4ccccc4)cc3[nH]2)o1	> 100 µM	> 100 µM	> 100 µM	65.4 µM	> 100 µM	> 100 µM	> 100 µM
COc1ccc(NC(=O)c2cc(NC(=O)/C=C/c3ccccc3)c(OC)c(OC)c2)cc1	> 100 µM	> 100 µM	> 100 µM	> 100 µM	48.5 µM	> 100 µM	5.62 µM
Nc1nc(-c2ccccc2)cc(-c2ccc(F)cc2)c1-c1ccc(Cl)cc1	> 100 µM	> 100 µM	> 100 µM	> 100 µM	> 100 µM	> 100 µM	> 100 µM
